These results are taken from article PMC12121777 (PLOS One, 2025).

For orientation: mortality means the percentage killed. By IC50 is commonly meant the point on the concentration scale where inhibition reaches its midpoint.

≈ marks a conversion by molar mass, not a printed value. Where two headings read alike, the source gives them in different places.

Data set [1] concerns Mycobacterium avium 330/88. Put plainly: MIC, micro method in Šula's semisynthetic medium, M. avium. Type of data set: cell-based.
Data set [2] has as its system Danio rerio embryos. Put plainly: Fish embryo test (FET). In kind it is in vivo. The settings on record: for mortality: as early as 48 h; for lethality: end of the 96 hours; for observed lethal endpoints: 0.001–100 µM, 96-hour exposure; for embryo coagulation, share of all observed endpoints: whole exposure period. The method, then:
Fish maintenance. A day before the experiment, adult wild-type zebrafish (Danio rerio) were transferred into plastic spawning cages at the end of the 14-hour photoperiod. All fish were spawned at the onset of the following photoperiod. Fertilized eggs were collected within 30 minutes post-fertilization and inspected for health state and developmental stage using a stereomicroscope before exposure to 5g and 4h. Tested compounds were dissolved in DMSO; its concentration in 1 mM stock solution was 0.5%.
Fish embryo test (FET). Fish embryo tests were carried out using six different concentrations (0.001, 0.01, 0.1, 1, 10, and 100 μM) of each of the tested substances and controls over 96 hours at a constant temperature of 26.9°C (±1°C) under semi-static experimental set-up. The used medium was E3 according to Cold Spring Harbor Protocols (5 mM NaCl, 0.17 mM KCl, 0.33 mM CaCl2, 0.33 mM MgSO4). Each FET consists of 24 embryos per concentration, where each embryo is considered an individual replicate. Before the tests, all wells in the testing culture well plates were saturated by overnight incubation with corresponding concentrations of 5g and 4h. Before loading the embryos into the well plates, all solutions were replaced by freshly aerated ones with corresponding concentrations or controls. All solutions in the well plates were changed again after 48 hours of exposure to minimize a potential reduction in oxygen levels and compound concentration. Fish embryos were inspected and scored for mortality, morphological changes, or hatching success rates at 24-, 48-, 72-, and 96-hours post-exposure (hpe) under an inverted microscope (Olympus IX71; Olympus Czech Group, s.r.o., Czech Republic). […] In comparison, > 90% of the embryos in the positive control (3,4-dichloroaniline) were considered dead at the end of the 96-hour exposure. Morphological endpoints in our analysis were: (1) coagulation of fertilised eggs or developing embryos; (2) lack of somite formation; (3) lack of detachment of the tail bud from the yolk sac; (4) lack of heartbeat or heart defects (oedema); (5) malformations of body parts (head and tail region); (6) growth retardation. All morphological endpoints were used to determine the mortality (a positive endpoint means the embryo was considered dead).
For both compounds, the negative controls involved pure E3 medium and E3 medium containing 0.05% DMSO.

Data set [3] concerns Mycobacterium kansasii 6509/96. Put plainly: MIC, micro method in Šula's semisynthetic medium, M. kansasii clinical isolate. Particulars: read-out: MIC M. kansasii 6509/96. In kind it is cell-based.
The test system of data set [4] is Mtb H37Ra pVV2-dprE1/dprE2. Nature of the data set: microbe, parasite or virus in culture. Type of data set: cell-based. The settings on record: Mycobacterium tuberculosis, 672 h, 28 days.
The test system of data set [5] is HepG2 cells. Put plainly: Cytotoxicity on HepG2 cell line (CellTiter 96). Particulars: Homo sapiens, HepG2, 24 h, read-out: IC50 HepG2. Type of data set: cell-based, human.
In data set [6] the test system is Mtb H37Ra pVV2. Nature of the data set: microbe, parasite or virus in culture. In kind it is cell-based. The settings on record: Mycobacterium tuberculosis, 672 h, 28 days.
Data set [7] concerns Mtb H37Rv. Nature of the data set: Metabolic labeling with 14C acetate and TLC lipid analysis. Particulars: 10× and 100× MIC, 14C acetate, 24 h.
Data set [8] deals with Mtb H37Ra pVV2-dprE2. Put plainly: microbe, parasite or virus in culture. In kind it is cell-based. The settings on record: Mycobacterium tuberculosis, 672 h, 28 days.
The test system of data set [9] is Mtb 331/88 (i.e., H37Rv). Put plainly: MIC, micro method in Šula's semisynthetic medium, drug-susceptible Mtb. Type of data set: cell-based, Mycobacterium tuberculosis. Particulars: Mycobacterium tuberculosis, H37RV.
Data set [10] concerns Bacillus subtilis. Also on record: method as in PMID 30988267. Particulars: cited from earlier work.
The subject of data set [11] is Staphylococcus aureus. Also on record: method as in PMID 30988267. Particulars: cited from earlier work.
Data set [12] relates to Mtb. Also on record: method as in PMID 33462533. Particulars: cited from earlier work.
The mark [13] stands for this setting: 330/88, 336 h, read-out: MIC M. avium 330/88.
[14] abbreviates: 330/88, 504 h, read-out: MIC M. avium 330/88.

As for `CCCCCCCCNC(=O)NNC(=O)c1cc([N+](=O)[O-])cc([N+](=O)[O-])c1` [Compound 4h, 2-(3,5-Dinitrobenzoyl)-N-octylhydrazine-1-carboxamide], the MIC in [1] (setting [13]) is 125 µM (≈ 47.7 µg/mL); in data set [1] (setting [14]), 250 µM (≈ 95.3 µg/mL); in [1] (330/88, read-out: MIC M. avium) it was 125 to 250 µM (≈ 47.7 to 95.3 µg/mL); in data set [3] (6509/96, 168 h), 1 µM (≈ 0.381 µg/mL); in data set [3] (6509/96, 336 h), 1 µM (≈ 0.381 µg/mL); in data set [3] (6509/96, 504 h), 1 µM (≈ 0.381 µg/mL). In addition, the MIC in data set [4] was above 2.5 µM; in [6] it was below 0.5 µM; in data set [8] it was below 0.5 µM; in [9] (336 h, 14 days) it was 0.25 µM (≈ 0.0953 µg/mL); in [9] (504 h, 21 days), 0.5 µM (≈ 0.191 µg/mL). Further, in data set [2], the “mortality at 1 µM” value is reported as “no significant mortality”. Also, the mortality in data set [2] (10 µM) and in data set [2] (100 µM) was 100% each time. This compound came in with a lethality in data set [2] (100 µM) of 100%. Also, the observed lethal endpoints result in data set [2] was “embryo coagulation and growth retardation”. The “embryo coagulation, share of all observed endpoints” value in data set [2] is reported as above 35%. In data set [5], the half-maximal inhibitory concentration (IC50) was 136 µM. In addition, the “lipid profile of treated cells vs untreated cells” value in [7] is “accumulation of TMM and TDM”.

`CCCCCCCNc1nnc(-c2cc([N+](=O)[O-])cc([N+](=O)[O-])c2)o1` [Compound 5g, 5-(3,5-Dinitrophenyl)-N-heptyl-1,3,4-oxadiazol-2-amine]: the MIC in [1] (setting [13]) is 4 µM (≈ 1.4 µg/mL); in data set [1] (setting [14]) it was 8 µM (≈ 2.79 µg/mL); in data set [3] (6509/96, 168 h), at most 0.03 µM; in [3] (6509/96, 336 h) it was 0.06 µM (≈ 0.021 µg/mL); in data set [3] (6509/96, 504 h) it was 0.125 µM (≈ 0.0437 µg/mL); in data set [4] it was above 0.3 µM. Also, the MIC in data set [6] was below 0.06 µM; in data set [8], below 0.06 µM; in data set [9] (336 h, 14 days) it was at most 0.03 µM; in data set [9] (504 h, 21 days), at most 0.03 µM. In data set [2], the “mortality at 1 µM” value is “no significant mortality”. In addition, the mortality in data set [2] (10 µM) and in [2] (100 µM) was 100% throughout. For the same compound, the lethality in data set [2] (100 µM) stood at 100%. In data set [2], the observed lethal endpoints entry was “pericardial oedema at lower concentrations and by growth retardation at higher concentrations”. In [2], the “embryo coagulation, share of all observed endpoints” value is given as above 25%. Moreover, in data set [5], the IC50 was above 100 µM. In data set [7], the “lipid profile of treated cells vs untreated cells” value is “accumulation of TMM and TDM”.

`Cc1ccc(-c2nnc(NC(=O)c3ccc([N+](=O)[O-])cc3)o2)cc1` [IX]: in [10], the MIC was 780 µg/mL (≈ 2410 µM).

Take `Cc1ccc(C(=O)Nc2nnc(-c3ccc(C)cc3)o2)cc1` [VIII]: the MIC in [11] was 1560 µg/mL (≈ 5320 µM).

In the case of `O=C(Nc1nnc(COc2ccccc2)o1)c1ccc([N+](=O)[O-])cc1` [X], the MIC in [10] was 780 µg/mL (≈ 2290 µM).

For the compound `O=c1nc(N2CCN(CC3CCCCC3)CC2)sc2c([N+](=O)[O-])cc(C(F)(F)F)cc12` [macozinone], the “MIC for Mtb” value in data set [12] is 0.002 µM.
